Data published in PubChem BioAssay AID1963828 (Molecular Pharmacology Branch, DTP, NCI, 2024).

Tested on: 991263-137-R1-J2-PDC complex spheroid viability
Assay: Anticancer human tumor 991263-137-R1-J2-PDC patient-derived colon adenocarcinoma cell line growth inhibition [POLQ]
Settings: for IC50: curve of first compound; for viability, T/C: stronger effect = lower value
Procedure, shortened: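 Patient-derived tumour cells were co-cultured with HUVEC and mesenchymal stem cells as multicellular spheroids at 37 °C. They were treated with POLQ inhibitors (novobiocin, ART-558, RP6685) alone or combined with other agents. Top concentrations were at or near clinical Cmax (otherwise 10 microM; SN-38 at 1 microM), decreasing in half-log steps.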

[1] = second compound 0.0316 µM, first compound 0.0316 µM
[2] = second compound 0.0316 µM, first compound 0.1 µM
[3] = second compound 0.0316 µM, first compound 0.316 µM
[4] = second compound 0.0316 µM, first compound 1 µM
[5] = second compound 0.0316 µM, first compound 3.16 µM
[6] = second compound 0.0316 µM, first compound 10 µM
[7] = second compound 0.1 µM, first compound 0.0316 µM
[8] = second compound 0.1 µM, first compound 0.1 µM
[9] = second compound 0.1 µM, first compound 0.316 µM
[10] = second compound 0.1 µM, first compound 1 µM
[11] = second compound 0.1 µM, first compound 3.16 µM
[12] = second compound 0.1 µM, first compound 10 µM
[13] = second compound 0.316 µM, first compound 0.0316 µM
[14] = second compound 0.316 µM, first compound 0.1 µM
[15] = second compound 0.316 µM, first compound 0.316 µM
[16] = second compound 0.316 µM, first compound 1 µM
[17] = second compound 0.316 µM, first compound 3.16 µM
[18] = second compound 0.316 µM, first compound 10 µM
[19] = second compound 1 µM, first compound 0.0316 µM
[20] = second compound 1 µM, first compound 0.1 µM
[21] = second compound 1 µM, first compound 0.316 µM
[22] = second compound 1 µM, first compound 1 µM
[23] = second compound 1 µM, first compound 3.16 µM
[24] = second compound 1 µM, first compound 10 µM
[25] = second compound 3.16 µM, first compound 0.0316 µM
[26] = second compound 3.16 µM, first compound 0.1 µM
[27] = second compound 3.16 µM, first compound 0.316 µM
[28] = second compound 3.16 µM, first compound 1 µM
[29] = second compound 3.16 µM, first compound 3.16 µM
[30] = second compound 3.16 µM, first compound 10 µM
[31] = second compound 10 µM, first compound 0.0316 µM
[32] = second compound 10 µM, first compound 0.1 µM
[33] = second compound 10 µM, first compound 0.316 µM
[34] = second compound 10 µM, first compound 1 µM
[35] = second compound 10 µM, first compound 3.16 µM
[36] = second compound 10 µM, first compound 10 µM
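Note: spheroids exposed to compounds for 7 days before readout.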
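Throughout, for viability, T/C: 100% = DMSO vehicle control viability.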

Molecule `CC1COCCN1c1cc(-c2ccnn2C)c2ccnc(-c3ccn[nH]3)c2n1` (stereo not drawn) + COC1C(OC(N)=O)C(O)C(Oc2ccc3c(O)c(NC(=O)c4ccc(O)c(CC=C(C)C)c4)c(=O)oc3c2C)OC1(C)C has an IC50 (second compound 0.0316 µM) of 745 nM, an IC50 (second compound 0.1 µM) of 709 nM and an IC50 (second compound 0.316 µM) of 679 nM. It also gave an IC50 (second compound 1 µM) of 764 nM, an IC50 (second compound 3.16 µM) of 698 nM and an IC50 (second compound 10 µM) of 1340 nM. The viability, T/C [1] was 92.3%, the viability, T/C [2] was 95.7% and the viability, T/C [3] was 76.7%. The viability, T/C [4] was 40.9%, the viability, T/C [5] was 33.4% and the viability, T/C [6] was 30%. It also gave a viability, T/C [7] of 98.2%, a viability, T/C [8] of 101% and a viability, T/C [9] of 76%. It also gave a viability, T/C [10] of 40.2%, a viability, T/C [11] of 23.1% and a viability, T/C [12] of 31.7%. For the same molecule, the viability, T/C [13] was 97.6%, the viability, T/C [14] was 108% and the viability, T/C [15] was 63.3%. It also gave a viability, T/C [16] of 46%, a viability, T/C [17] of 26.4% and a viability, T/C [18] of 23.4%. It also gave a viability, T/C [19] of 89.6%, a viability, T/C [20] of 104% and a viability, T/C [21] of 75.7%. It also gave a viability, T/C [22] of 43.1%, a viability, T/C [23] of 35.7% and a viability, T/C [24] of 29.9%. It also gave a viability, T/C [25] of 88.4%, a viability, T/C [26] of 101% and a viability, T/C [27] of 69.5%. For the same molecule, the viability, T/C [28] was 42.2%, the viability, T/C [29] was 33% and the viability, T/C [30] was 26.9%. For the same molecule, the viability, T/C [31] was 82.1%, the viability, T/C [32] was 95% and the viability, T/C [33] was 85.7%. For the same molecule, the viability, T/C [34] was 54.9%, the viability, T/C [35] was 36.9% and the viability, T/C [36] was 30.8%.

Molecule `CC1COCCN1c1cc(C2(S(C)(=N)=O)CC2)nc(-c2ccnc3[nH]ccc23)n1` (stereo not drawn) + COC1C(OC(N)=O)C(O)C(Oc2ccc3c(O)c(NC(=O)c4ccc(O)c(CC=C(C)C)c4)c(=O)oc3c2C)OC1(C)C has an IC50 (second compound 0.0316 µM) of over 10000 nM, an IC50 (second compound 0.1 µM) of over 10000 nM and an IC50 (second compound 0.316 µM) of over 10000 nM. The IC50 (second compound 1 µM) was over 10000 nM, the IC50 (second compound 3.16 µM) was over 10000 nM and the IC50 (second compound 10 µM) was over 10000 nM. The viability, T/C [1] was 99.2%, the viability, T/C [2] was 84.5% and the viability, T/C [3] was 104%. For the same molecule, the viability, T/C [4] was 87%, the viability, T/C [5] was 91.5% and the viability, T/C [6] was 66.1%. The viability, T/C [7] was 113%, the viability, T/C [8] was 112% and the viability, T/C [9] was 101%. For the same molecule, the viability, T/C [10] was 89.2%, the viability, T/C [11] was 97.6% and the viability, T/C [12] was 55.4%. The viability, T/C [13] was 96.3%, the viability, T/C [14] was 106% and the viability, T/C [15] was 89.9%. For the same molecule, the viability, T/C [16] was 69.6%, the viability, T/C [17] was 104% and the viability, T/C [18] was 83.8%. The viability, T/C [19] was 106%, the viability, T/C [20] was 103% and the viability, T/C [21] was 91.2%. The viability, T/C [22] was 89.5%, the viability, T/C [23] was 96.5% and the viability, T/C [24] was 79.9%. The viability, T/C [25] was 92.8%, the viability, T/C [26] was 85.9% and the viability, T/C [27] was 98.3%. It also gave a viability, T/C [28] of 106%, a viability, T/C [29] of 103% and a viability, T/C [30] of 84%. It also gave a viability, T/C [31] of 86.8%, a viability, T/C [32] of 106% and a viability, T/C [33] of 105%. The viability, T/C [34] was 96.6%, the viability, T/C [35] was 107% and the viability, T/C [36] was 70.9%.

In the case of `CCCS(=O)(=O)Nc1ccc(F)c(C(=O)c2c[nH]c3ncc(-c4ccc(Cl)cc4)cc23)c1F` + COC1C(OC(N)=O)C(O)C(Oc2ccc3c(O)c(NC(=O)c4ccc(O)c(CC=C(C)C)c4)c(=O)oc3c2C)OC1(C)C, the IC50 (second compound 0.0316 µM) is reported as over 10000 nM, the IC50 (second compound 0.1 µM) is reported as over 10000 nM and the IC50 (second compound 0.316 µM) is reported as over 10000 nM. It also gave an IC50 (second compound 1 µM) of over 10000 nM, an IC50 (second compound 3.16 µM) of over 10000 nM and an IC50 (second compound 10 µM) of over 10000 nM. It also gave a viability, T/C [1] of 110%, a viability, T/C [2] of 98.7% and a viability, T/C [3] of 106%. The viability, T/C [4] was 105%, the viability, T/C [5] was 102% and the viability, T/C [6] was 104%. For the same molecule, the viability, T/C [7] was 82%, the viability, T/C [8] was 109% and the viability, T/C [9] was 97.5%. The viability, T/C [10] was 85.5%, the viability, T/C [11] was 129% and the viability, T/C [12] was 109%. For the same molecule, the viability, T/C [13] was 96.9%, the viability, T/C [14] was 94.9% and the viability, T/C [15] was 121%. It also gave a viability, T/C [16] of 130%, a viability, T/C [17] of 97.9% and a viability, T/C [18] of 108%. It also gave a viability, T/C [19] of 105%, a viability, T/C [20] of 103% and a viability, T/C [21] of 121%. It also gave a viability, T/C [22] of 95.9%, a viability, T/C [23] of 105% and a viability, T/C [24] of 84.8%. It also gave a viability, T/C [25] of 102%, a viability, T/C [26] of 124% and a viability, T/C [27] of 99.7%. The viability, T/C [28] was 105%, the viability, T/C [29] was 89.9% and the viability, T/C [30] was 97.6%. For the same molecule, the viability, T/C [31] was 94.2%, the viability, T/C [32] was 118% and the viability, T/C [33] was 95.2%. For the same molecule, the viability, T/C [34] was 111%, the viability, T/C [35] was 113% and the viability, T/C [36] was 110%.

`Cn1ncnc1[C@H]1c2n[nH]c(=O)c3cc(F)cc(c23)N[C@@H]1c1ccc(F)cc1` + COC1C(OC(N)=O)C(O)C(Oc2ccc3c(O)c(NC(=O)c4ccc(O)c(CC=C(C)C)c4)c(=O)oc3c2C)OC1(C)C gave an IC50 (second compound 0.0316 µM) of over 100 nM, an IC50 (second compound 0.1 µM) of over 100 nM and an IC50 (second compound 0.316 µM) of over 100 nM. It also gave an IC50 (second compound 1 µM) of over 100 nM, an IC50 (second compound 3.16 µM) of over 100 nM and an IC50 (second compound 10 µM) of over 100 nM. It also gave a viability, T/C (second compound 0.0316 µM, first compound 0.000316 µM) of 122%, a viability, T/C (second compound 0.0316 µM, first compound 0.001 µM) of 107% and a viability, T/C (second compound 0.0316 µM, first compound 0.00316 µM) of 104%. It also gave a viability, T/C (second compound 0.0316 µM, first compound 0.01 µM) of 85.5%, a viability, T/C [1] of 79.3% and a viability, T/C [2] of 107%. The viability, T/C (second compound 0.1 µM, first compound 0.000316 µM) was 99.8%, the viability, T/C (second compound 0.1 µM, first compound 0.001 µM) was 117% and the viability, T/C (second compound 0.1 µM, first compound 0.00316 µM) was 97.7%. For the same molecule, the viability, T/C (second compound 0.1 µM, first compound 0.01 µM) was 83.8%, the viability, T/C [7] was 105% and the viability, T/C [8] was 102%. The viability, T/C (second compound 0.316 µM, first compound 0.000316 µM) was 95%, the viability, T/C (second compound 0.316 µM, first compound 0.001 µM) was 122% and the viability, T/C (second compound 0.316 µM, first compound 0.00316 µM) was 75.4%. It also gave a viability, T/C (second compound 0.316 µM, first compound 0.01 µM) of 108%, a viability, T/C [13] of 109% and a viability, T/C [14] of 110%. It also gave a viability, T/C (second compound 1 µM, first compound 0.000316 µM) of 98.1%, a viability, T/C (second compound 1 µM, first compound 0.001 µM) of 117% and a viability, T/C (second compound 1 µM, first compound 0.00316 µM) of 94.2%. It also gave a viability, T/C (second compound 1 µM, first compound 0.01 µM) of 106%, a viability, T/C [19] of 71.5% and a viability, T/C [20] of 109%. It also gave a viability, T/C (second compound 3.16 µM, first compound 0.000316 µM) of 95.9%, a viability, T/C (second compound 3.16 µM, first compound 0.001 µM) of 109% and a viability, T/C (second compound 3.16 µM, first compound 0.00316 µM) of 92.1%. The viability, T/C (second compound 3.16 µM, first compound 0.01 µM) was 102%, the viability, T/C [25] was 109% and the viability, T/C [26] was 110%. The viability, T/C (second compound 10 µM, first compound 0.000316 µM) was 95.7%, the viability, T/C (second compound 10 µM, first compound 0.001 µM) was 110% and the viability, T/C (second compound 10 µM, first compound 0.00316 µM) was 121%. The viability, T/C (second compound 10 µM, first compound 0.01 µM) was 98%, the viability, T/C [31] was 113% and the viability, T/C [32] was 95.8%.
